Assay results: patent US9023789B2, “Amylin analogs and pharmaceutical compositions thereof” (Novo Nordisk A/S, priority 2012, dated 2015)
Read-outs that look alike come from different tables or passages of the source. Numbered stars: 1 amine (or outer) side, 2 acyl side, 3 side chain; on linkers, the order of the positions; unused ones are H or OH. Bridge positions count the residues as written; N and C are the ends. Side chains are listed from the residue outwards. Peptide text beside a SMILES is read from it. * marks the point of attachment. C20 diacid = O=C(O)CCCCCCCCCCCCCCCCCCC(=O)*; γGlu = O=C(O)[C@H](CCC(=O)[*:2])N[*:1]

Experiments:
[1] = ASSAY (IV) determination of solubility; type: physicochemical
Procedure, shortened: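 Dissolve polypeptide in water ([…] stock); combine 1:1 with each 100 mM buffer (glycylglycine pH 3.0/4.0/5.0; bistrispropane pH 6.0/6.5/7.0/7.5/8.0); hold 18 hours at room temperature; centrifuge; quantify polypeptide by UPLC.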

[2] = ASSAY (III) ThT fibrillation assay for physical stability; type: physicochemical
Procedure, shortened: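 Formulations with 1 μM ThT, pH adjusted as required, incubated at 37 °C with 960 rpm orbital shaking; fluorescence (ex 444/em 485 nm) read every 20 min. Fibrillation reported as mean ThT fluorescence ± SD of 4–8 replicates at time points; polypeptide concentration measured by reverse-phase HPLC before and after, post-centrifugation.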

[3] = bistrispropane buffer, pH 6.5, read-out: Solubility pH 6.5 Concentration
[4] = bistrispropane buffer, pH 7.5, read-out: Solubility pH 7.5 Concentration
[5] = bistrispropane buffer, pH 6.0, read-out: Solubility pH 6.0 Concentration
[6] = bistrispropane buffer, pH 7.0, read-out: Solubility pH 7.0 Concentration
[7] = bistrispropane buffer, pH 8.0, read-out: Solubility pH 8.0 Concentration
[8] = glycylglycine buffer, pH 3.0, read-out: Solubility pH 3.0 Concentration
[9] = glycylglycine buffer, pH 4.0, read-out: Solubility pH 4.0 Concentration
[10] = glycylglycine buffer, pH 5.0, read-out: Solubility pH 5.0 Concentration

Q: What does the source list for CC[C@H](C)[C@H](NC(=O)[C@H](C)NC(=O)CNC(=O)[C@H](Cc1ccccc1)NC(=O)[C@H](CC(N)=O)NC(=O)[C@@H]1CCCN1C(=O)[C@H](CO)NC(=O)[C@H](CO)NC(=O)[C@H](Cc1c[nH]cn1)NC(=O)[C@H](CCCNC(=N)N)NC(=O)[C@H](CC(C)C)NC(=O)[C@H](Cc1ccccc1)NC(=O)[C@H](CCC(=O)O)NC(=O)[C@H](C)NC(=O)[C@H](CC(C)C)NC(=O)[C@H](CCCNC(=N)N)NC(=O)[C@H](CCC(N)=O)NC(=O)[C@@H](NC(=O)[C@H](C)NC(=O)[C@@H]1CSSC[C@H](NC(=O)[C@@H](N)CCCCNC(=O)CC[C@H](NC(=O)CCCCCCCCCCCCCCCCCCC(=O)O)C(=O)O)C(=O)N[C@@H](CC(N)=O)C(=O)N[C@@H]([C@@H](C)O)C(=O)N[C@@H](C)C(=O)N[C@@H]([C@@H](C)O)C(=O)N1)[C@@H](C)O)C(=O)N1CCC[C@H]1C(=O)N[C@@H](CO)C(=O)N[C@@H](CO)C(=O)N[C@H](C(=O)N[C@@H](CC(N)=O)C(=O)N[C@H](C(=O)NCC(=O)N[C@@H](Cc1c[nH]cn1)C(=O)N[C@@H](CCC(=O)O)C(=O)N[C@H](C(=O)N[C@@H](Cc1ccc(O)cc1)C(N)=O)[C@@H](C)O)C(C)C)[C@@H](C)O [Example 107] (H-K([γGlu-C20 diacid])CNTATCATQRLAEFLRHSSPNFGAIPSSTNVGHETY-NH2; disulfide 2-7 (inferred))?
A: solubility at 18 h [1, 3]: ≥ 200 µM; solubility at 18 h [1, 4]: ≥ 200 µM; solubility at 18 h [1, 5]: ≥ 200 µM; solubility at 18 h [1, 6]: ≥ 200 µM; solubility at 18 h [1, 7]: ≥ 200 µM; solubility at 18 h [1, 8]: ≥ 200 µM; solubility at 18 h [1, 9]: ≥ 200 µM; solubility at 18 h [1, 10]: ≥ 200 µM; ThT pH 4.0 lag time (h) [2]: 45 h

Q: With CC[C@H](C)[C@H](NC(=O)[C@H](C)NC(=O)CNC(=O)[C@H](Cc1ccccc1)NC(=O)[C@H](CC(N)=O)NC(=O)[C@@H]1CCCN1C(=O)[C@H](CO)NC(=O)[C@H](CO)NC(=O)[C@H](Cc1c[nH]cn1)NC(=O)[C@H](CCCNC(=N)N)NC(=O)[C@H](CC(C)C)NC(=O)[C@H](Cc1ccccc1)NC(=O)[C@H](CC(N)=O)NC(=O)[C@H](C)NC(=O)[C@H](CC(C)C)NC(=O)[C@H](CCCNC(=N)N)NC(=O)[C@H](CCC(N)=O)NC(=O)[C@@H](NC(=O)[C@H](C)NC(=O)[C@@H]1CSSC[C@H](NC(=O)[C@@H](N)CCCCNC(=O)CC[C@H](NC(=O)CCCCCCCCCCCCC(=O)O)C(=O)O)C(=O)N[C@@H](CC(N)=O)C(=O)N[C@@H]([C@@H](C)O)C(=O)N[C@@H](C)C(=O)N[C@@H]([C@@H](C)O)C(=O)N1)[C@@H](C)O)C(=O)N1CCC[C@H]1C(=O)N[C@@H](CO)C(=O)N[C@@H](CO)C(=O)N[C@H](C(=O)N[C@@H](CC(N)=O)C(=O)N[C@H](C(=O)NCC(=O)N[C@@H](Cc1c[nH]cn1)C(=O)N[C@@H](CC(N)=O)C(=O)N[C@H](C(=O)N[C@@H](Cc1ccc(O)cc1)C(N)=O)[C@@H](C)O)C(C)C)[C@@H](C)O [Example 112] as the compound, how does the solubility at 18 h [1, 3] read?
A: The solubility at 18 h was at least 200 µM.

Q: And the solubility at 18 h [1, 4]?
A: The solubility at 18 h was at least 200 µM.

Q: And the solubility at 18 h [1, 5]?
A: Its solubility at 18 h is at least 200 µM.

Q: What about the solubility at 18 h [1, 6] of the same compound?
A: Its solubility at 18 h is at least 200 µM.

Q: What about the solubility at 18 h [1, 7] of the same compound?
A: Its solubility at 18 h is at least 200 µM.

Q: What about the solubility at 18 h [1, 8] of the same compound?
A: Its solubility at 18 h is at least 200 µM.

Q: And the solubility at 18 h [1, 9]?
A: The solubility at 18 h was at least 200 µM.

Q: What about the solubility at 18 h [1, 10] of the same compound?
A: The solubility at 18 h was at least 200 µM.

Q: And the “ThT pH 4.0 lag time (h)” value [2]?
A: The value was 30 h.

Q: For CC[C@H](C)[C@H](NC(=O)[C@H](C)NC(=O)CNC(=O)[C@H](Cc1ccccc1)NC(=O)[C@H](CC(N)=O)NC(=O)[C@@H]1CCCN1C(=O)[C@H](CO)NC(=O)[C@H](CO)NC(=O)[C@H](Cc1c[nH]cn1)NC(=O)[C@H](CCCNC(=N)N)NC(=O)[C@H](CC(C)C)NC(=O)[C@H](Cc1ccccc1)NC(=O)[C@H](CCC(=O)O)NC(=O)[C@H](C)NC(=O)[C@H](CC(C)C)NC(=O)[C@H](CCCNC(=N)N)NC(=O)[C@H](CCC(N)=O)NC(=O)[C@@H](NC(=O)[C@H](C)NC(=O)[C@@H]1CSSC[C@H](NC(=O)[C@@H](N)CCCCNC(=O)CC[C@H](NC(=O)CCCCCCCCCCCCCCCCCCC(=O)O)C(=O)O)C(=O)N[C@@H](CC(N)=O)C(=O)N[C@@H]([C@@H](C)O)C(=O)N[C@@H](C)C(=O)N[C@@H]([C@@H](C)O)C(=O)N1)[C@@H](C)O)C(=O)N1CCC[C@H]1C(=O)N[C@@H](CO)C(=O)N[C@@H](CO)C(=O)N[C@H](C(=O)N[C@@H](CC(N)=O)C(=O)N[C@H](C(=O)NCC(=O)N1CCC[C@H]1C(=O)N[C@@H](CC(N)=O)C(=O)N[C@H](C(=O)N1CCC[C@H]1C(N)=O)[C@@H](C)O)C(C)C)[C@@H](C)O [Example 114] (H-K([γGlu-C20 diacid])CNTATCATQRLAEFLRHSSPNFGAIPSSTNVGPNTP-NH2; disulfide 2-7 (inferred); N-terminus assumed), which solubility at 18 h [1, 3] is on record?
A: Its solubility at 18 h is at least 200 µM.

Q: And the solubility at 18 h [1, 4]?
A: The solubility at 18 h was at least 200 µM.

Q: What about the solubility at 18 h [1, 5] of the same compound?
A: The solubility at 18 h was at least 200 µM.

Q: And the solubility at 18 h [1, 6]?
A: Its solubility at 18 h is at least 200 µM.

Q: And the solubility at 18 h [1, 7]?
A: The solubility at 18 h was at least 200 µM.

Q: And the solubility at 18 h [1, 8]?
A: Its solubility at 18 h is at least 200 µM.

Q: And the solubility at 18 h [1, 9]?
A: Its solubility at 18 h is at least 200 µM.

Q: And the solubility at 18 h [1, 10]?
A: Its solubility at 18 h is at least 200 µM.

Q: And the “ThT pH 4.0 lag time (h)” value [2]?
A: The value was 45 h.

Q: With CC[C@H](C)[C@H](NC(=O)[C@H](C)NC(=O)CNC(=O)[C@H](Cc1ccccc1)NC(=O)[C@H](CC(N)=O)NC(=O)[C@@H]1CCCN1C(=O)[C@H](CO)NC(=O)[C@H](CO)NC(=O)[C@H](Cc1c[nH]cn1)NC(=O)[C@H](CCCNC(=N)N)NC(=O)[C@H](CC(C)C)NC(=O)[C@H](Cc1ccccc1)NC(=O)[C@H](Cc1c[nH]cn1)NC(=O)[C@H](C)NC(=O)[C@H](CC(C)C)NC(=O)[C@H](CCCNC(=N)N)NC(=O)[C@H](CCC(N)=O)NC(=O)[C@@H](NC(=O)[C@H](C)NC(=O)[C@@H]1CSSC[C@H](NC(=O)[C@@H](N)CCCCNC(=O)CC[C@H](NC(=O)CCCCCCCCCCCCCCCCCCC(=O)O)C(=O)O)C(=O)N[C@@H](CC(N)=O)C(=O)N[C@@H]([C@@H](C)O)C(=O)N[C@@H](C)C(=O)N[C@@H]([C@@H](C)O)C(=O)N1)[C@@H](C)O)C(=O)N1CCC[C@H]1C(=O)N[C@@H](CO)C(=O)N[C@@H](CO)C(=O)N[C@H](C(=O)N[C@@H](CC(N)=O)C(=O)N[C@H](C(=O)NCC(=O)N1CCC[C@H]1C(=O)N[C@@H](CC(N)=O)C(=O)N[C@H](C(=O)N1CCC[C@H]1C(N)=O)[C@@H](C)O)C(C)C)[C@@H](C)O [Example 115] (H-K([γGlu-C20 diacid])CNTATCATQRLAHFLRHSSPNFGAIPSSTNVGPNTP-NH2; disulfide 2-7 (inferred); N-terminus assumed) as the compound, how does the solubility at 18 h [1, 3] read?
A: Its solubility at 18 h is at least 200 µM.

Q: What about the solubility at 18 h [1, 4] of the same compound?
A: The solubility at 18 h was at least 200 µM.

Q: And the solubility at 18 h [1, 5]?
A: Its solubility at 18 h is at least 200 µM.

Q: What about the solubility at 18 h [1, 6] of the same compound?
A: The solubility at 18 h was at least 200 µM.

Q: What about the solubility at 18 h [1, 7] of the same compound?
A: The solubility at 18 h was at least 200 µM.

Q: And the solubility at 18 h [1, 8]?
A: Its solubility at 18 h is at least 200 µM.

Q: And the solubility at 18 h [1, 9]?
A: The solubility at 18 h was at least 200 µM.

Q: What about the solubility at 18 h [1, 10] of the same compound?
A: Its solubility at 18 h is at least 200 µM.

Q: And the “ThT pH 4.0 lag time (h)” value [2]?
A: The value was 45 h.
